The values that follow are results of earlier work, collected in patent US6437103B1, “Fatty acid analogs for diagnosis of coronary artery disease” (Biostream Inc., priority 1999, dated 2002).

Each structure is given as a SMILES string.

This data set has as its system myocardium. The following applies: background statement citing Goodman et al. 1984; Liefhold and Eisenhut 1986.

Take `O=C(O)CCCCCCCCCCCCCCc1ccc(I)cc1` [15-(p-iodophenyl)pentadecanoic acid]: the myocardial uptake entry is recorded as “moderate”.
